Assay results published in patent US10507201B2, “Use of ring-fused bicyclic pyridyl derivatives as FGFR4 inhibitors” (NOVARTIS AG, priority 2014, dated 2019).

Experiments:
[1] = test system: JHH7 hepatocellular carcinoma cells; test: Methylene Blue Staining proliferation assay (MBS), JHH7; type: cell-based
Description: (§1) The effect of compounds on cell proliferation is assessed using HuH-7 hepatocellular carcinoma cells obtained from the Japanese Collection of Research Bioresources Cell Bank (Cat#JCRB0403) and cultured in the vendor-recommended medium (DMEM high glucose (Amimed Cat#1-26F01-I), 10% foetal calf serum (Invitrogen Cat#16140-071), 1 mM sodium pyruvate (Amimed Cat#5-60F00-H), 1× Penicillin/Streptomycin (Amimed Cat#4-01F00-H)) at 37° C. in a humidified 5% CO2 incubator. Specifically, 5000 cells/well were seeded in 96-well tissue culture plates (TPP Cat#92696) in a total media volume of 100 μl/well and increasing compound dilutions or DMSO were added 24 hours thereafter in triplicates. 72 hours after compound addition, cells were fixed by adding 25 μL/well of 20% glutaraldehyde (Sigma Aldrich Cat#G400-4) and incubated for 10 minutes at room temperature. Cells were washed three times with H2O, 200 μL/well and stained with 100 μL/well 0.05% methylene blue (ABCR GmbH Cat#AB117904) for 10 minutes at room temperature. Cells were washed 3 times with H2O, 200 μL/well and then lysed by adding 200 μL/well of 3% HCl (Fluka Cat#84422) for 30 minutes at room temperature with shaking. Optical density was measured at A650 nm.
(§2) The effect of compounds on cell proliferation using Hep 3B2.1-7 hepatocellular carcinoma cells, FU97 gastric cancer cells, JHH7 hepatocellular carcinoma cells or JHH6 hepatocellular carcinoma cells is assessed as above. Hep 3B2.1-7, FU97, JHH7 or JHH6 are obtained from the Japanese Collection of Research Bioresources Cell Bank. Hep 3B2.1-7 cells are cultured in EMEM+10% FCS+1 mM Na pyruvate+2 mM L-glutamine and 2000 cells/well are seeded for the proliferation assay. FU97 cells are cultured in DMEM high glucose+10% FCS+1 mM Na pyruvate+4 mM L-glutamine+1×ITS and 2000 cells/well are seeded for the proliferation assay. JHH6 and JHH7 cells are cultured in William's E+10% FCS+2 mM L-glutamine and 3000 cells are seeded for the proliferation assay.

[2] = test system: HuH-7 hepatocellular carcinoma cells; test: Methylene Blue Staining proliferation assay (MBS), HuH-7; type: cell-based; settings: Homo sapiens, HuH-7 cells, 72 hours after compound addition, read-out: HUH7 proliferation (nM) MBS
Description: Methylene Blue Staining Proliferation Assay (MBS):
(§3) 72 hours after compound addition, cells were fixed by adding 25 μL/well of 20% glutaraldehyde (Sigma Aldrich Cat#G400-4) and incubated for 10 minutes at room temperature. Cells were washed three times with H2O, 200 μL/well and stained with 100 μL/well 0.05% methylene blue (ABCR GmbH Cat#AB117904) for 10 minutes at room temperature. […] Optical density was measured at A650 nm.

[3] = test system: HuH-7 hepatocellular carcinoma cells; test: CellTiter Glo (CTG) assay, HuH-7; settings: Homo sapiens, Huh-7, 72 h, read-out: HUH7 proliferation (nM) CTG
Description: CellTiter Glo (CTG) Assay:
Compound-mediated suppression of cell proliferation/viability is assessed by quantification of cellular ATP levels using the CellTiter-Glo (CTG) reagent (Promega, Cat#G7573). […] For data analysis, the assay background value determined in wells containing medium, but no cells, is subtracted from all data points. […] The effect of a particular test compound concentration on cell proliferation/viability is expressed as percentage of the background- and day 0-corrected luminescence reading obtained for cells treated with vehicle only (DMSO, 0.1% f.c.), which is set as 100%, whereas the luminescence reading for wells containing medium only, but no cells, is set as −100%. Compound concentrations leading to half-maximal growth inhibition (GI50) are determined using standard four parameter curve fitting (XLfit 5.2., IDBS, UK).

[4] = test system: FU97 gastric cancer cells; test: Methylene Blue Staining proliferation assay (MBS), FU97; type: cell-based
Description: as §1, §2

[5] = test system: Hep 3B2.1-7 hepatocellular carcinoma cells; test: Methylene Blue Staining proliferation assay (MBS), Hep 3B2.1-7; type: cell-based; settings: Homo sapiens, Hep3B, Hep 3B2.1-7 cells
Description: as §3, §2

Row | IC50 [1] [nM] | IC50 [2] [nM] | IC50 [3] [nM] | IC50 [4] [nM] | IC50 [5] [nM] | Compound
1 | > 3000 |  |  |  |  | N#Cc1ccc(NC(=O)N2CCCc3cc(CO)c(C=O)nc32)nc1 [Example 27, N-(5-cyanopyridin-2-yl)-7-formyl-6-(hydroxymethyl)-3,4-dihydro-1,8-naphthyridine-1(2H)-carboxamide]
2 | > 3000 | 123 | 569 |  |  | COCCOc1cc(NC(=O)N2CCCc3cc(CO)c(C=O)nc32)ncc1C#N [Example 39, N-(5-cyano-4-(2-methoxyethoxy)pyridin-2-yl)-7-formyl-6-(hydroxymethyl)-3,4-dihydro-1,8-naphthyridine-1(2H)-carboxamide]
3 | 484 | 270 |  | 234 |  | N#Cc1cnc(NC(=O)N2CCCc3cc(CO)c(C=O)nc32)cc1O[C@H]1CCOC1 [Example 50, (S)—N-(5-cyano-4-((tetrahydrofuran-3-yl)oxy)pyridin-2-yl)-7-formyl-6-(hydroxymethyl)-3,4-dihydro-1,8-naphthyridine-1(2H)-carboxamide]
4 | > 3000 |  |  |  |  | COCCOc1cc(NC(=O)N2CCCc3cc(C(F)F)c(C=O)nc32)ncc1C#N [Example 63, N-(5-cyano-4-(2-methoxyethoxy)pyridin-2-yl)-6-(difluoromethyl)-7-formyl-3,4-dihydro-1,8-naphthyridine-1(2H)-carboxamide]
5 | > 3000 |  |  |  | > 3000 | CC(=O)N(C)Cc1cc2c(nc1C=O)N(C(=O)Nc1ccc(C#N)cn1)CCC2 [Example 68, N-(5-cyanopyridin-2-yl)-7-formyl-6-((N-methylacetamido)methyl)-3,4-dihydro-1,8-naphthyridine-1(2H)-carboxamide]
6 | 150 |  | 168 | 96 |  | COCCNc1cc(NC(=O)N2CCCc3cc(CO)c(C=O)nc32)ncc1C#N [Example 80, N-(5-cyano-4-((2-methoxyethyl)amino)pyridin-2-yl)-7-formyl-6-(hydroxymethyl)-3,4-dihydro-1,8-naphthyridine-1(2H)-carboxamide]
7 |  |  | 38 |  |  | CC(C)Oc1cc(NC(=O)N2CCCc3cc(CN4CCN(C)CC4=O)c(C=O)nc32)ncc1C#N [Example 92, N-(5-cyano-4-isopropoxypyridin-2-yl)-7-formyl-6-((4-methyl-2-oxopiperazin-1-yl)methyl)-3,4-dihydro-1,8-naphthyridine-1(2H)-carboxamide]
8 |  | 82 | 142 |  |  | COCCOc1cc(NC(=O)N2CCCc3cc(CN4CCN(C)CC4=O)c(C=O)nc32)ncc1C#N [Example 101, N-(5-cyano-4-(2-methoxyethoxy)pyridin-2-yl)-7-formyl-6-((4-methyl-2-oxopiperazin-1-yl)methyl)-3,4-dihydro-1,8-naphthyridine-1(2H)-carboxamide]
9 |  |  | 17.8 |  | 5 | COC[C@@H](C)Oc1cc(NC(=O)N2CCCc3cc(CN4CCN(C)CC4=O)c(C=O)nc32)ncc1C#N [Example 205, (R)—N-(5-cyano-4-((1-methoxypropan-2-yl)oxy)pyridin-2-yl)-7-formyl-6-((4-methyl-2-oxopiperazin-1-yl)methyl)-3,4-dihydro-1,8-naphthyridine-1(2H)-carboxamide]

Row | Compound | IC50 [1] [nM] | IC50 [2] [nM] | IC50 [3] [nM] | IC50 [4] [nM] | IC50 [5] [nM]
10 | COCCNc1cc(NC(=O)N2CCCc3cc(CN4CCN(C)CC4=O)c(C=O)nc32)ncc1C#N [Example 83, N-(5-cyano-4-((2-methoxyethyl)amino)pyridin-2-yl)-7-formyl-6-((4-methyl-2-oxopiperazin-1-yl)methyl)-3,4-dihydro-1,8-naphthyridine-1(2H)-carboxamide] | 9 | 12 | 60.9 | 23 | 1
